Some results are limits rather than exact numbers.

The target in this test is BRD4 (Homo sapiens, UniProt O60885). As to the kind of experiment: Time resolved fluorescence resonance energy transfer (TR-FRET) binding assay, bromodomain BRD4. To be noted: one of the FRET assays described; read-out: FRET BRD4 IC50. Background: TR-FRET usually uses a lanthanide donor and a delayed reading to cut background.
What is called IC50 is the concentration needed to halve the response being measured. In the case of `Cc1noc(C)c1-c1cnc2c3ccc(N4CCS(=O)(=O)CC4)nc3n([C@H](c3ccccc3)C3CCOCC3)c2c1` [Example 209, 4-[5-(Dimethyl-1,2-oxazol-4-yl)-8-[(S)-oxan-4-yl(phenyl)methyl]-3,8,10-triazatricyclo[7.4.0.0^2,^7]trideca-1(9),2(7),3,5,10,12-hexaen-11-yl]-1λ^6,4-thiomorpholine-1,1-dione], the IC50 is less than 10 nM.
Take `[2H]C([2H])([2H])c1nnn(C)c1-c1cnc2c3ccc(N4C[C@@H](C)O[C@@H](C)C4)nc3n([C@H](c3ccccc3F)C3CCOCC3)c2c1` [Example 237, 11-[(2R,6S)-2,6-Dimethylmorpholin-4-yl]-8-[(S)-(2-fluorophenyl)(oxan-4-yl)methyl]-5-[4-(^2H3)methyl-1-methyl-1H-1,2,3-triazol-5-yl]-3,8,10-triazatricyclo[7.4.0.0^2,^7]trideca-1(13),2(7),3,5,9,11-hexaene]: the IC50 is less than 1 nM.
For `COc1nccc2c3ncc(-c4c(C)nnn4C)cc3n(C(c3cccc(F)c3F)C3CCOCC3)c12` (single isomer, unassigned) [Example 23, 8-[(2,3-Difluorophenyl)(oxan-4-yl)methyl]-5-(dimethyl-1H-1,2,3-triazol-5-yl)-10-methoxy-3,8,11-triazatricyclo[7.4.0.0^2,^7]trideca-1(13),2(7),3,5,9,11-hexaene], the IC50 is less than 1500 nM.
`[2H]C([2H])([2H])c1nnn(C)c1-c1nc2c(cc1F)c1ncc(C(C)(C)O)cc1n2[C@H](c1ccccc1)C1CCOCC1` [Example 361, 2-{12-Fluoro-11-[4-(^2H3)methyl-1-methyl-1H-1,2,3-triazol-5-yl]-8-[(S)-oxan-4-yl(phenyl)methyl]-3,8,10-triazatricyclo[7.4.0.0^2,^7]trideca-1(9),2(7),3,5,10,12-hexaen-5-yl}propan-2-ol]: the IC50 is less than 10 nM.
The value for `CCCC(c1ccc(F)cn1)n1c2cc(-c3c(C)nnn3C)ncc2c2ncc(C(C)(C)O)cc21` (single isomer, unassigned) [Example 376] was less than 10 nM; that for `Cc1nnn(C)c1-c1cnc2c3ccc(N4CCC(C#N)CC4)nc3n([C@H](c3ccccc3F)C3CCOCC3)c2c1` [Example 274, 1-[5-(Dimethyl-1H-1,2,3-triazol-5-yl)-8-[(S)-(2-fluorophenyl)(oxan-4-yl)methyl]-3,8,10-triazatricyclo[7.4.0.0^2,^7]trideca-1(13),2(7),3,5,9,11-hexaen-11-yl]piperidine-4-carbonitrile] was less than 10 nM; that for `COc1ccc(CNc2ccc3c4ncc(-c5c(C)nnn5C)cc4n([C@H](c4ccccc4)C4CCOCC4)c3n2)c(OC)c1` [Example 187, N-[(2,4-Dimethoxyphenyl)methyl]-5-(dimethyl-1H-1,2,3-triazol-5-yl)-8-[(S)-oxan-4-yl(phenyl)methyl]-3,8,10-triazatricyclo[7.4.0.0^2,^7]trideca-1(9),2(7),3,5,10,12-hexaen-11-amine] was less than 10 nM.
The value for `COc1nccc2c3ncc(-c4c(C)nnn4C)cc3n([C@H](c3ccccc3)C3CCOCC3)c12` [Example 13, 5-(Dimethyl-1H-1,2,3-triazol-5-yl)-10-methoxy-8-[(S)-oxan-4-yl(phenyl)methyl]-3,8,11-triazatricyclo[7.4.0.0^2,^7]trideca-1(13),2(7),3,5,9,11-hexaene] was less than 1 nM; that for `[2H]C([2H])([2H])C(=O)c1cc2c(cn1)c1ncc(-c3c(C)noc3C)cc1n2[C@H](c1ccc(F)cc1)C1CCOCC1` [Example 223, 1-[5-(Dimethyl-1,2-oxazol-4-yl)-8-[(S)-(4-fluorophenyl)(oxan-4-yl)methyl]-3,8,12-triazatricyclo[7.4.0.0^2,^7]trideca-1(13),2(7),3,5,9,11-hexaen-11-yl](^2H3)ethan-1-one] was less than 10 nM.

These data come from US9725449B2, “Tricyclic compounds as anticancer agents” (BRISTOL-MYERS SQUIBB COMPANY, priority 2015, dated 2017).
